# Test results as given in US11530210B2, “Substituted heteroaromatic pyrazolo-pyridines and their use as GLUN2B receptor modulators” (JANSSEN PHARMACEUTICA NV, priority 2019, dated 2022).
# Counter-ions that a name gives are not always drawn.
# Molecular target: T1, human GluN1/GluN2B NMDA receptors (Homo sapiens, UniProt Q13224)
# T1 construct: expressed in transfected cells
# Experiment: Calcium flux (FLIPR) assay on cloned human NR1/GluN2B ion channels expressed in mammalian cells (standard and HTS variants)
# Format: cell-based
# Conditions: cells expressing human GluN1/GluN2B, glutamate and glycine co-agonists
# How it was run: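 Calcium influx read by FLIPR after co-agonist addition (glycine 10 μM, glutamate near EC40) following 5 min compound preincubation, with signal normalized to control wells.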
# T1 sequence (Q13224 27-1484, other chains not shown): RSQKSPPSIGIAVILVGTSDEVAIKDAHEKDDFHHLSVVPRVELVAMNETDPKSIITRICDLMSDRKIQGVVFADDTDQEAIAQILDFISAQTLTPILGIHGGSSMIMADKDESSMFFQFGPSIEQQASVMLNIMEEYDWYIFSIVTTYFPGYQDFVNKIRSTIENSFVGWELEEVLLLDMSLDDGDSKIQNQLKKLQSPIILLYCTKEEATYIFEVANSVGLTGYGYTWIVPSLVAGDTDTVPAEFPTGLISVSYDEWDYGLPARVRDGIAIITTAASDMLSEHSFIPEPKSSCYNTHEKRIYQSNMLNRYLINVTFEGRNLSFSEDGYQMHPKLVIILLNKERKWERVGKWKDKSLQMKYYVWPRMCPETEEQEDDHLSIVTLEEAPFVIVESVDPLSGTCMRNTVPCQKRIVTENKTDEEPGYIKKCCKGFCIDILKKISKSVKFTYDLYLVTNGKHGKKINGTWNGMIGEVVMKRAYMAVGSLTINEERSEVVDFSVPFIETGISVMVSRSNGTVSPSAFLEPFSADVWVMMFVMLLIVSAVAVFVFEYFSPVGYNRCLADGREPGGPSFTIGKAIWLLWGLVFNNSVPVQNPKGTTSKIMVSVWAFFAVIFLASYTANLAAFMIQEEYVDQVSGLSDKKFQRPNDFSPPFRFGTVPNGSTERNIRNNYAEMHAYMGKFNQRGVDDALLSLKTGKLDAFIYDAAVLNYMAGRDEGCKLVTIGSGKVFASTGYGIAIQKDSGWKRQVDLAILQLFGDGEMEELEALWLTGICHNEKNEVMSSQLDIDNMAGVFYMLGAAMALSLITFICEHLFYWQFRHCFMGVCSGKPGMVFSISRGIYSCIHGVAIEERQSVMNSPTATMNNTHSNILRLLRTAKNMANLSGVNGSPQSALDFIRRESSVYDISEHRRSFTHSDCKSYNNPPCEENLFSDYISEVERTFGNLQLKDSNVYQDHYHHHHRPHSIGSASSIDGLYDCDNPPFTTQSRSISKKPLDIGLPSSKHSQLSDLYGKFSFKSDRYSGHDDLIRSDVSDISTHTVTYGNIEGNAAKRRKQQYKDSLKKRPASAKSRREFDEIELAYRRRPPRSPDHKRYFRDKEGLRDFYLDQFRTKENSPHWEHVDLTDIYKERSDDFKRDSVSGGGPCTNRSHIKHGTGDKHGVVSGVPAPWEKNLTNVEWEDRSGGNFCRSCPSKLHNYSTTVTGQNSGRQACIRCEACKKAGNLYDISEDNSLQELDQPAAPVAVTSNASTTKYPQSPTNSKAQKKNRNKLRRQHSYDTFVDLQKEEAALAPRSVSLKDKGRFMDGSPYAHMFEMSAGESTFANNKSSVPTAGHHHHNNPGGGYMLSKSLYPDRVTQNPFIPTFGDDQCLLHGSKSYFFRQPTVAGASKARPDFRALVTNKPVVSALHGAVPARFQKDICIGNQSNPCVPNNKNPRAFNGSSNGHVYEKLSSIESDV
row,Structure (SMILES),IC50 [nM]
1,"Cc1cncc(Cn2ncc3ncc(-c4cc(C)cs4)cc32)c1 [Example 138, 1-[(5-Methyl-3-pyridyl)methyl]-6-(4-methyl-2-thienyl)pyrazolo[4,3-b]pyridine]",159
2,"Cc1ccc(-c2cnc3cnn(Cc4cccnc4)c3c2)s1 [Example 139, 6-(5-Methyl-2-thienyl)-1-(3-pyridylmethyl)pyrazolo[4,3-b]pyridine]",89
3,"N#Cc1cncc(Cn2ncc3ncc(-c4ccc(Cl)s4)cc32)c1 [Example 140, 5-[[6-(5-Chloro-2-thienyl)pyrazolo[4,3-b]pyridin-1-yl]methyl]pyridine-3-carbonitrile]",170
4,"Clc1ccsc1-c1cnc2cnn(Cc3cccnc3)c2c1 [Example 141, 6-(3-Chloro-2-thienyl)-1-(3-pyridylmethyl)pyrazolo[4,3-b]pyridine]",61
5,"N#Cc1cncc(Cn2ncc3ncc(-c4ccc(C(F)F)s4)cc32)c1 [Example 142, 5-[[6-[5-(Difluoromethyl)-2-thienyl]pyrazolo[4,3-b]pyridin-1-yl]methyl]pyridine-3-carbonitrile]",219
6,"Fc1ccc(Cn2ncc3ncc(-c4ccc(C(F)(F)F)s4)cc32)cn1 [Example 143, 1-((6-Fluoropyridin-3-yl)methyl)-6-(5-(trifluoromethyl)thiophen-2-yl)-1H-pyrazolo[4,3-b]pyridine]",132
7,"N#Cc1cncc(Cn2ncc3ncc(-c4ccc(C(F)(F)F)s4)cc32)c1 [Example 144, 5-[[6-[5-(Trifluoromethyl)-2-thienyl]pyrazolo[4,3-b]pyridin-1-yl]methyl]pyridine-3-carbonitrile]",582
8,"Cc1cccc(-c2cnc3cnn(Cc4ccc(F)nc4)c3c2)c1 [Example 145, 1-[(6-Fluoro-3-pyridyl)methyl]-6-(m-tolyl)pyrazolo[4,3-b]pyridine]",36
9,"Cc1cccc(-c2cnc3cnn(Cc4cncc(F)c4)c3c2)c1 [Example 146, 1-[(5-Fluoro-3-pyridyl)methyl]-6-(m-tolyl)pyrazolo[4,3-b]pyridine]",9
10,"Cc1cccc(-c2cnc3c(F)nn(Cc4cncc(F)c4)c3c2)c1 [Example 147, 3-Fluoro-1-[(5-fluoro-3-pyridyl)methyl]-6-(m-tolyl)pyrazolo[4,3-b]pyridine]",48
11,"Fc1cncc(Cn2ncc3ncc(-c4ccc(Cl)cc4)cc32)c1 [Example 148, 6-(4-Chlorophenyl)-1-[(5-fluoro-3-pyridyl)methyl]pyrazolo[4,3-b]pyridine trifluoroacetate salt]",634
12,"Fc1ccc(-c2cnc3cnn(Cc4ccccn4)c3c2)cc1 [Example 149, 6-(4-Fluorophenyl)-1-(2-pyridylmethyl)pyrazolo[4,3-b]pyridine]",3460
13,"COc1cncc(Cn2ncc3ncc(-c4ccc(F)cc4)cc32)c1 [Example 150, 6-(4-Fluorophenyl)-1-[(5-methoxy-3-pyridyl)methyl]pyrazolo[4,3-b]pyridine]",410
14,"Fc1ccc(-c2cnc3cnn(Cc4cncc(OC(F)F)c4)c3c2)cc1 [Example 151, 1-[[5-(Difluoromethoxy)-3-pyridyl]methyl]-6-(4-fluorophenyl)pyrazolo[4,3-b]pyridine]",1150
15,"Fc1cccc(-c2cnc3cnn(Cc4ccccn4)c3c2)c1 [Example 152, 6-(3-Fluorophenyl)-1-(2-pyridylmethyl)pyrazolo[4,3-b]pyridine]",2180
16,"Fc1cncc(Cn2ncc3ncc(-c4ccccc4F)cc32)c1 [Example 153, 6-(2-Fluorophenyl)-1-[(5-fluoro-3-pyridyl)methyl]pyrazolo[4,3-b]pyridine]",720
17,"COc1cccc(-c2cnc3cnn(Cc4ccccn4)c3c2)c1 [Example 154, 6-(3-Methoxyphenyl)-1-(2-pyridylmethyl)pyrazolo[4,3-b]pyridine]",7370
18,"COc1cccc(-c2cnc3cnn(Cc4ccc(F)nc4)c3c2)c1 [Example 155, 1-[(6-Fluoro-3-pyridyl)methyl]-6-(3-methoxyphenyl)pyrazolo[4,3-b]pyridine]",1650
19,"FC(F)c1cccc(-c2cnc3cnn(Cc4ccccn4)c3c2)c1 [Example 156, 6-[3-(Difluoromethyl)phenyl]-1-(2-pyridylmethyl)pyrazolo[4,3-b]pyridine]",740
20,"N#Cc1cncc(Cn2ncc3ncc(-c4cccc(C(F)F)c4)cc32)c1 [Example 157, 5-[[6-[3-(Difluoromethyl)phenyl]pyrazolo[4,3-b]pyridin-1-yl]methyl]pyridine-3-carbonitrile]",64
21,"FC(F)c1cccc(-c2cnc3cnn(Cc4cncc(Cl)c4)c3c2)c1 [Example 158, 1-[(5-Chloro-3-pyridyl)methyl]-6-[3-(difluoromethyl)phenyl]pyrazolo[4,3-b]pyridine]",14
22,"Fc1cncc(Cn2ncc3ncc(-c4cccc(OC(F)F)c4)cc32)c1 [Example 159, 6-[3-(Difluoromethoxy)phenyl]-1-[(5-fluoro-3-pyridyl)methyl]pyrazolo[4,3-b]pyridine]",249
23,"Cc1cncc(Cn2ncc3ncc(-c4cccc(C(C)(F)F)c4)cc32)c1 [Example 160, 6-[3-(1,1-Difluoroethyl)phenyl]-1-[(5-methyl-3-pyridyl)methyl]pyrazolo[4,3-b]pyridine]",112
24,"CC(F)(F)c1cccc(-c2cnc3cnn(Cc4cncc(F)c4)c3c2)c1 [Example 161, 6-[3-(1,1-Difluoroethyl)phenyl]-1-[(5-fluoro-3-pyridyl)methyl]pyrazolo[4,3-b]pyridine]",40

# Second part, the molecule after the results:
row,IC50 [nM],Structure (SMILES)
1,930,"FC(F)(F)c1cccc(-c2cnc3cnn(Cc4ccccn4)c3c2)c1 [Example 162, 1-(2-Pyridylmethyl)-6-[3-(trifluoromethyl)phenyl]pyrazolo[4,3-b]pyridine]"
2,90,"FC(F)(F)c1cccc(-c2cnc3cnn(Cc4cccnc4)c3c2)c1 [Example 163, 1-(3-Pyridylmethyl)-6-[3-(trifluoromethyl)phenyl]pyrazolo[4,3-b]pyridine hydrochloride salt]"
3,798,"FC(F)(F)c1cccc(-c2cnc3cnn(Cc4ccncc4)c3c2)c1 [Example 164, 1-(4-Pyridylmethyl)-6-[3-(trifluoromethyl)phenyl]pyrazolo[4,3-b]pyridine hydrochloride salt]"
4,2170,"Cc1ccc(Cn2ncc3ncc(-c4cccc(C(F)(F)F)c4)cc32)cn1 [Example 165, 1-[(6-Methyl-3-pyridyl)methyl]-6-[3-(trifluoromethyl)phenyl]pyrazolo[4,3-b]pyridine]"
5,870,"Cc1ncccc1Cn1ncc2ncc(-c3cccc(C(F)(F)F)c3)cc21 [Example 166, 1-[(2-Methyl-3-pyridyl)methyl]-6-[3-(trifluoromethyl)phenyl]pyrazolo[4,3-b]pyridine]"
6,250,"Cc1cncc(Cn2ncc3ncc(-c4cccc(C(F)(F)F)c4)cc32)c1 [Example 167, 1-[(5-Methyl-3-pyridyl)methyl]-6-[3-(trifluoromethyl)phenyl]pyrazolo[4,3-b]pyridine]"
7,161,"Cc1ccncc1Cn1ncc2ncc(-c3cccc(C(F)(F)F)c3)cc21 [Example 168, 1-[(4-Methyl-3-pyridyl)methyl]-6-[3-(trifluoromethyl)phenyl]pyrazolo[4,3-b]pyridine trifluoroacetate salt]"
8,234,"Fc1ccc(Cn2ncc3ncc(-c4cccc(C(F)(F)F)c4)cc32)cn1 [Example 169, 1-[(6-Fluoro-3-pyridyl)methyl]-6-[3-(trifluoromethyl)phenyl]pyrazolo[4,3-b]pyridine]"
9,1040,"Fc1ncccc1Cn1ncc2ncc(-c3cccc(C(F)(F)F)c3)cc21 [Example 170, 1-[(2-Fluoro-3-pyridyl)methyl]-6-[3-(trifluoromethyl)phenyl]pyrazolo[4,3-b]pyridine]"
10,212,"Fc1cncc(Cn2ncc3ncc(-c4cccc(C(F)(F)F)c4)cc32)c1 [Example 171, 1-[(5-Fluoro-3-pyridyl)methyl]-6-[3-(trifluoromethyl)phenyl]pyrazolo[4,3-b]pyridine]"
11,7780,"COc1ncccc1Cn1ncc2ncc(-c3cccc(C(F)(F)F)c3)cc21 [Example 172, 1-[(2-Methoxy-3-pyridyl)methyl]-6-[3-(trifluoromethyl)phenyl]pyrazolo[4,3-b]pyridine trifluoroacetate salt]"
12,210,"COc1cncc(Cn2ncc3ncc(-c4cccc(C(F)(F)F)c4)cc32)c1 [Example 173, 1-[(5-Methoxy-3-pyridyl)methyl]-6-[3-(trifluoromethyl)phenyl]pyrazolo[4,3-b]pyridine]"
13,11900,"FC(F)(F)c1cccc(-c2cnc3cnn(Cc4ccc(C(F)(F)F)nc4)c3c2)c1 [Example 174, 6-[3-(Trifluoromethyl)phenyl]-1-[[6-(trifluoromethyl)-3-pyridyl]methyl]pyrazolo[4,3-b]pyridine]"
14,2300,"FC(F)(F)c1cncc(Cn2ncc3ncc(-c4cccc(C(F)(F)F)c4)cc32)c1 [Example 175, 6-[3-(Trifluoromethyl)phenyl]-1-[[5-(trifluoromethyl)-3-pyridyl]methyl]pyrazolo[4,3-b]pyridine]"
15,1300,"FC(F)(F)c1cccc(-c2cnc3cnn(Cc4cnccc4C(F)(F)F)c3c2)c1 [Example 176, 6-[3-(Trifluoromethyl)phenyl]-1-[[4-(trifluoromethyl)-3-pyridyl]methyl]pyrazolo[4,3-b]pyridine]"
16,23,"Cc1cc(-c2cnc3cnn(Cc4cccnc4)c3c2)ccc1F [Example 177, 6-(4-Fluoro-3-methyl-phenyl)-1-(3-pyridylmethyl)pyrazolo[4,3-b]pyridine]"
17,26,"Cc1cc(-c2cnc3c(F)nn(Cc4cccnc4)c3c2)ccc1F [Example 178, 3-Fluoro-6-(4-fluoro-3-methyl-phenyl)-1-(3-pyridylmethyl)pyrazolo[4,3-b]pyridine]"
18,507,"Cc1cc(-c2cnc3cnn(Cc4cccnc4C)c3c2)ccc1F [Example 179, 6-(4-Fluoro-3-methyl-phenyl)-1-[(2-methyl-3-pyridyl)methyl]pyrazolo[4,3-b]pyridine]"
